Reference: US20110190348A1, “METHODS FOR TREATING CNS DISORDERS” (priority 2008, published 2011)

Assays:
[1] = tested on: Male NMRI mice; assay: Forced swimming test (FST); type: in vivo; conditions: doses of 5 and 10 mg/kg p.o., may be a false positive from nonspecific stimulatory effect
Method: The aim of this study was to evaluate the antidepressant activity of radiprodil. The forced swimming test is a behavioral assay that can be used to predict antidepressant efficacy of drugs in humans.
(§1) Male NMRI mice weighing 24-26 g were used. The animals were kept in polycarbonate cages in a thermostatically controlled room at 24+2° C. and at a relative humidity (RH) of 50±10%. The room was artificially illuminated from 6 am to 6 pm and the mice were given commercial pellet rat-mouse feed, autoclaved at 105° C. and sterile filtered tap water, ad libitum.
(§2) An aqueous solution of radiprodil, in the form of a complex with heptakis(2,6-di-O-methyl)-β-cyclodextrin(DIMEB), was administered orally at doses of 2.5, 5 and 10 mg/kg (calculated for non-complexed radiprodil). […]
The forced swimming test (FST) was measured in glass cylinders (height: […], diameter 14 cm) containing 12 cm of water, maintained at 23-25° C. […] The duration of immobility was recorded using a stopwatch. […]
In the forced swimming test, the mean±standard error on the mean (s.e.m) immobility time in seconds was measured. […] The mean (±s.e.m) “FST-activity” value was also calculated for each group and submitted to the same data analysis process as the immobility data.
The significance of the drug effect was determined by ANOVA followed by post-hoc Duncan-test. […]

[2] = tested on: Male NMRI mice; assay: Spontaneous locomotor activity; type: in vivo; conditions: doses of 5 and 10 mg/kg p.o.
Method: as §1, §2
Spontaneous locomotor activity was measured in a four-channel activity monitor manufactured by Farmakotechnika (Hungary). […] The photocell beam, when broken, signaled a count, which was then recorded by a computer.
Each group consisted of 10 animals. […] The horizontal and vertical movements were determined as the number of beam interruptions collected in 15 minute intervals throughout the 1 hour period.
In the spontaneous locomotor activity test, the mean (±s.e.m) value of one hour horizontal activity data (in counts) of each group was calculated.
The significance of the drug effect was determined by ANOVA followed by post-hoc Duncan-test. The percentage change in the horizontal activity, immobility or “FST-activity” variables were calculated for each dose according to the equation; […]

O=C(Nc1ccc2[nH]c(=O)oc2c1)C(=O)N1CCC(Cc2ccc(F)cc2)CC1 [radiprodil, 2-[4-(4-fluoro-benzyl)-piperidine-1-yl]-2-oxo-N-(2-oxo-2,3-dihydro-benzoxazol-6-yl)acetamide]
effect in the forced swimming test (in words) [1]: significant effects
effect on spontaneous motor activity (in words) [2]: stimulated the spontaneous motor activity
